According to patent publication US20070149916A1, “Dry matrices as drug reservoirs in electrotransport applications” (ALZA CORPORATION, priority 2005, published 2007):

Legend:
[1] = transdermal electrotransport, FIGS. 5A and 5B
[2] = aqueous solutions of apomorphine; cited from earlier work
[3] = Stability of apomorphine in aqueous solution and in PEO matrices; type: physicochemical; conditions: PEO films cast using 2:1 acetonitrile:methanol; low formate or non-radiation crosslinked PEO; FIG. 4
[4] = Stability of hydrocortisone hemisuccinate in PVOH hydrogels and PEO matrices (HPLC); type: physicochemical
Method: The stability of hydrocortisone hemisuccinate (HCHS), a hydrolytically unstable compound that forms hydrocortisone and succinic acid via hydrolysis, in PVOH hydrogels and PEO matrices was investigated.
In a separate set of experiments (FIGS. 3A and 3B), the stability of HCHS in PVOH hydrogels and PEO matrices was examined at 23° C. and 40° C. over a period of three days.

Compound	in vitro flux in PEO films compared with PVOH hydrogels [1]	time to rapid oxidation in aqueous solutions [2]	time over which formulations containing PEO were stable [3]	stability of HCHS in PEO matrices vs PVOH hydrogels ([4]; 40° C., over a period of three days, FIGS. 3A and 3B)	stability of HCHS in PEO matrix compared with PVOH hydrogel (HPLC chromatogram) ([4]; PEO film made using acetonitrile as the solvent vs PVOH hydrogel, FIG. 2)
CN1CCc2cccc3c2[C@H]1Cc1ccc(O)c(O)c1-3 [apomorphine]	comparable	less than 30 minutes	up to 4 weeks	–	–
hydrocortisone hemisuccinate [HCHS]	–	–	–	Improved stability	more stable in the PEO matrix than in the PVOH hydrogel
